{
  "source": "patent US5480879A",
  "about": "“Quinolonecarboxylic acids” (Bayer Aktiengesellschaft, priority 1992, dated 1996)",
  "assay_in_all_cases": "MIC in microtitre plates, brain-heart infusion broth",
  "format_in_all_cases": "cell-based",
  "key": {"[1]": {"system": "Staphylococcus aureus 1756", "details": "about 10^5 microorganisms/ml inoculum", "description": "(§1) The determination of the \"minimum inhibitory concentrations\" (MIC) was effected in mitrotitre plates using brain-heart infusion broth, with about 10^5 microorganisms/ml being employed as the inoculum."}, "[2]": {"system": "Enterococcus faecalis 27101", "details": "about 10^5 microorganisms/ml inoculum", "description": "as §1"}, "[3]": {"system": "Staphylococcus aureus 133", "details": "about 10^5 microorganisms/ml inoculum", "description": "as §1"}, "Escherichia coli Neumann": {"system": "Escherichia coli Neumann", "details": "about 10^5 microorganisms/ml inoculum", "description": "as §1"}, "[4]": {"system": "Staphylococcus aureus ICB 25768", "details": "ICB25768, about 10^5 microorganisms/ml inoculum", "description": "as §1"}, "[5]": {"system": "Enterococcus faecalis 9790", "details": "about 10^5 microorganisms/ml inoculum", "description": "as §1"}, "[6]": {"system": "Staphylococcus aureus ICB 25701", "details": "ICB25701, about 10^5 microorganisms/ml inoculum", "description": "as §1"}, "[7]": {"system": "Serratia marcescens 16040", "details": "about 10^5 microorganisms/ml inoculum", "description": "as §1"}, "Klebsiella sp. 63": {"system": "Klebsiella sp. 63", "details": "about 10^5 microorganisms/ml inoculum", "description": "as §1"}},
  "data": [
    {"compound": "O=C(Cc1ccccc1)N[C@@H]1C(=O)N2C(C(=O)O)=C(CN3CCC[C@H]4CN(c5c(F)cc6c(=O)c(C(=O)O)cn(C7CC7)c6c5Cl)C[C@H]43)CS[C@H]12", "note": "[A, 7-[2-([6R,7R ]-2-Carboxy-8-oxo-7-phenylacetylamino-5-thia-1-aza-bicyclo[4.2.0]oct-2-en-3-ylmethyl)-[1S,6S]-2,8-diazabicyclo[4.3.0]non-8-yl]-8-chloro-1-cyclopropyl-6-fluoro-1,4-dihydro-4-oxo-3-quinolinecarboxylic acid]", "values": [
      {"measurement": "MIC", "setting": "[1]", "value": 0.004, "unit": "µg/mL"},
      {"measurement": "MIC", "setting": "[2]", "value": 0.25, "unit": "µg/mL"},
      {"measurement": "MIC", "setting": "[3]", "value": 0.03, "unit": "µg/mL"},
      {"measurement": "MIC", "setting": "Escherichia coli Neumann", "value": 0.03, "unit": "µg/mL"},
      {"measurement": "MIC", "setting": "[4]", "value": 2, "unit": "µg/mL"},
      {"measurement": "MIC", "setting": "[5]", "value": 0.25, "unit": "µg/mL"},
      {"measurement": "MIC", "setting": "[6]", "value": 0.25, "unit": "µg/mL"},
      {"measurement": "MIC", "setting": "[7]", "value": 4, "unit": "µg/mL"},
      {"measurement": "MIC", "setting": "Klebsiella sp. 63", "value": 0.125, "unit": "µg/mL"}
    ]},
    {"compound": "O=C(Cc1ccccc1)N[C@@H]1C(=O)N2C(C(=O)O)=C(CN3CCN(c4c(F)cc5c(=O)c(C(=O)O)cn(C6CC6)c5c4Cl)CC3)CS[C@H]12", "note": "[B]", "values": [
      {"measurement": "MIC", "setting": "[1]", "value": 0.03, "unit": "µg/mL"},
      {"measurement": "MIC", "setting": "[2]", "value": 8, "unit": "µg/mL"},
      {"measurement": "MIC", "setting": "[3]", "value": 0.125, "unit": "µg/mL"},
      {"measurement": "MIC", "setting": "Escherichia coli Neumann", "value": 0.25, "unit": "µg/mL"},
      {"measurement": "MIC", "setting": "[4]", "value": 128, "unit": "µg/mL"},
      {"measurement": "MIC", "setting": "[5]", "value": 8, "unit": "µg/mL"},
      {"measurement": "MIC", "setting": "[6]", "value": 32, "unit": "µg/mL"},
      {"measurement": "MIC", "setting": "[7]", "value": 16, "unit": "µg/mL"},
      {"measurement": "MIC", "setting": "Klebsiella sp. 63", "value": 1, "unit": "µg/mL"}
    ]}
  ]
}
